Numbers after ± are expanded uncertainties.
Settings: Liquid, Closed cell (Static) method

- vapor or sublimation pressure (383.2 K): 142.5 ± 2.1 kPa
- vapor or sublimation pressure (393.2 K): 198.7 ± 2.2 kPa
- vapor or sublimation pressure (403.2 K): 270 ± 2.5 kPa
- vapor or sublimation pressure (413.2 K): 361.7 ± 2.8 kPa
- vapor or sublimation pressure (423.2 K): 476.1 ± 3 kPa
SMILES: O [water]
